Each compound was assayed against ErbB2 (Homo sapiens, UniProt P04626) (assay: ErbB kinase ELISA on poly-Glu-Tyr 4:1 coated microtiter plates). Details: PGT substrate, ATP, baculovirus ErbB2, 30 minutes at room temperature, optical density at 450 nm.
Type: biochemical
Procedure: The extent to which the compounds of the present invention modulate ErbB kinase activity can be determined using the following enzyme-linked immunosorbent assay (ELISA), which employs a microtiter plate coated with a protein tyrosine kinase specific polymer substrate. The phosphorylation reaction is performed on poly-Glu-Tyr 4:1 (PGT) coated microtiter plates in the presence on Mg^++, ATP and EGFR. The phosphorylated polymer substrate is detected with a phosphotyrosine specific monoclonal antibody conjugated to horseradish peroxidase (HRP). Chromogenic substrate (TMB) color is quantitiated by spectrophotometry.
The assay is performed in a 96-well microtiter plate (Immunlon 4, available from Dynex). To prepare the plate, 100 μL of 0.25 mg/mL Poly (Glu,Tyr) 4:1 Sodium Salt (available from Sigma, Catalog Number P0275) in phosphate buffered saline (PBS) is added to each well and the plates are sealed. Following incubation overnight at ambient temperature, this coating solution is removed and the plates are washed three times with 300 μL of 0.1% Tween 20 (available from Sigma, Catalog Number P2287) in PBS. If not using immediately, the coated microtiter plates may be stored at 2-8° C. with 150 μL of 0.1% Tween 20 in PBS in each well.
The compound to be tested is dissolved in DMSO at an initial concentration of 1.0 mM. This initial concentration is diluted 1:25 in DMSO, and the resulting solution is further serially diluted 1:5 eight times in DMSO. To 10 μL of the initial concentration and each dilution are added 240 μL Reaction Buffer (50 mM HEPES, 125 mM NaCl, 24 mM MgCl2, 0.1 mM Na3VO4 (boiled at pH 10 until colorless—approximately 10 minutes—and cooled prior to use), pH 7.3, filtered through a 0.2 micron filter). 25 μL of each compound solution (4% DMSO in Reaction Buffer for control) is placed in a separate microtiter plate well, along with 50 μL Reaction Buffer +ATP (15 μL 10 of mM ATP added to 5 mL Reaction Buffer) and 25 μL Reaction Buffer into which a catalytic amount of baculovirus ErbB2 has been added. The plate is then covered and incubated for 30 minutes at room temperature, after which time all liquid is aspirated from each well. The plate is washed three times with 300 μL of 0.1% Tween in PBS. Residual wash solution is removed by inverting the plate and blotting on a paper towel.
To each well is then added 100 μL of PBS containing 3% bovine serum albumin (protease-free, IgG-free, Jackson Catalog Number 001-000-162), 0.05% Tween 20 and 0.2 μg/mL anti-phosphotyrosine horseradisn peroxidase (available from Zymed, Laboratories, Inc., Catalog Number 03-7720). The plate is covered and incubated for 30 minutes at room temperature, after which time all liquid is aspirated from each well. The plate is washed three times with 300 μL of 0.1% Tween in PBS. Residual wash solution is removed by inverting the plate and blotting on a paper towel. To each well is then added 100 μL of TMB peroxidase substrate system (KPL Catalog Number 50-76-00), and the plate is allowed to incubate for 25 minutes at room temperature, at which time the reaction is stopped by the addition of 100 μL of 1M phosphoric acid to each well. The plate is tapped gently to ensure mixing.
Within about thirty minutes after the reaction is stopped, the optical density at 450 nm of each well is determined using a microtiter plate reader. A dose response curve is generated by plotting optical density versus compound concentration. IC50 is calculated from this curve using methods known in the art.

ErbB2, sequence (P04626 23-1255): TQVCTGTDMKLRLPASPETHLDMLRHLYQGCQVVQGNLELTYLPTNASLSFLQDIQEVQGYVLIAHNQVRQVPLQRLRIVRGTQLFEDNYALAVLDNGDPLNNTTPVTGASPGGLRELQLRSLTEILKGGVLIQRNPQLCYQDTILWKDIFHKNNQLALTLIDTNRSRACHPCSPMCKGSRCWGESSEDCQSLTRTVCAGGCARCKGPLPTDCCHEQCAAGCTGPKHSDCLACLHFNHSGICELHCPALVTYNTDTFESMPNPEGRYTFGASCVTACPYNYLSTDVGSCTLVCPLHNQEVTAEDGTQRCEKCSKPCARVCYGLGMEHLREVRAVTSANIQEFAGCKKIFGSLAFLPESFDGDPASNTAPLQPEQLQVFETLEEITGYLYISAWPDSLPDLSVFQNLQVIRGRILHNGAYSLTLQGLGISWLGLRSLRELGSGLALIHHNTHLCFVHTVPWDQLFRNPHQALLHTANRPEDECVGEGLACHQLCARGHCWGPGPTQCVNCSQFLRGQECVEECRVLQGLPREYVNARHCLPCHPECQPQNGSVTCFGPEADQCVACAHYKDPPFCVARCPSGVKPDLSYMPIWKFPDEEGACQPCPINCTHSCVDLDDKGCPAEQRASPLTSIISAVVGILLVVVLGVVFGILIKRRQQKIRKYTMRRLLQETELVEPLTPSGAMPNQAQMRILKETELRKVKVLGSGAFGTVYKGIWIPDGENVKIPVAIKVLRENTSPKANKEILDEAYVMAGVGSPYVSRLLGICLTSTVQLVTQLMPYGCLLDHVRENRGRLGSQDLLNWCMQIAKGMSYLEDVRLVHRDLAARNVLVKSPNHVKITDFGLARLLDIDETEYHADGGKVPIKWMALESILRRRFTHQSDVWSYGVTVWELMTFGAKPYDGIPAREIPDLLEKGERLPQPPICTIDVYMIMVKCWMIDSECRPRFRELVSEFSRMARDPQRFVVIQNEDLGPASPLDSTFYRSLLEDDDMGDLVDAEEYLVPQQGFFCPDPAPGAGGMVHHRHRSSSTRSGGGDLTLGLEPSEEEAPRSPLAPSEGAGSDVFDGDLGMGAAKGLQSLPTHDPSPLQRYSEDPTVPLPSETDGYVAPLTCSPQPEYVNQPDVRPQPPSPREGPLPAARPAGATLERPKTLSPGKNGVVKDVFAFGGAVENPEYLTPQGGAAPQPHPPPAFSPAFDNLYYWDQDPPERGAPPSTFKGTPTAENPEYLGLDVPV

SMILES	IC50
N#C/N=C(/NCC#Cc1ccc2ncnc(Nc3ccc(OCc4cccc(F)c4)c(Cl)c3)c2c1)NCCO [Example 2, N-(3-{4-[3-Chloro-4-(3-fluoro-benzyloxy)-phenylamino]-quinazolin-6-yl}-prop-2-ynyl)-N′-cyano-N″-3-(2-hydroxy-ethyl)guanidine]	410 nM
CN(C)/C(=N\C#N)NCC#Cc1ccc2ncnc(Nc3ccc(OCc4cccc(F)c4)c(Cl)c3)c2c1 [Example 1, N-(3-{4-[3-Chloro-4-(3-fluoro-benzyloxy)-phenylamino]-quinazolin-6-yl}-prop-2-ynyl)-N′-cyano-N″,N″-dimethylguanidine]	85 nM
COc1cc2ncnc(Nc3ccc(OCc4ccccn4)c(Cl)c3)c2cc1OCCCN/C(=N\C#N)N(C)C [Example 7, N-(3-{4-[3-Chloro-4-(pyridin-2-ylmethoxy)-phenylamino]-7-methoxy-quinazolin-6-yloxy}-propyl)-N′-cyano-N″,N″-dimethylguanidine]	33 nM
COc1cc2ncnc(Nc3ccc(OCc4ccccn4)c(Cl)c3)c2cc1OCCCN/C(=N\C#N)N(C)CCN(C)C [Example 6, N-(3-{4-[3-Chloro-4-(pyridin-2-ylmethoxy)-phenylamino]-7-methoxy-quinazolin-6-yloxy}-propyl)-N′-cyano-N″-(2-dimethylamino-ethyl)-N″-methylguanidine]	14 nM
COCCN(C)/C(=N/C#N)NC/C=C/c1ccc2ncnc(Nc3ccc4c(cnn4Cc4cccc(F)c4)c3)c2c1 [Example 10, N-cyano-N′-(3-{4-[1-(3-Fluoro-benzyl)-1H-indazol-5-ylamino]-quinazolin-6-yl}-allyl)-N″-(2-methoxy-ethyl)-N″-methylguanidine]	17 nM
Cc1ccc(Oc2ccc(Nc3ncnc4ccc(C#CCN/C(N)=N/C#N)cc34)cc2C)cn1 [Example 3, N-cyano-N′-(3-{4-[3-Methyl-4-(6-methyl-pyridin-3-yloxy)-phenylamino]-quinazolin-6-yl}-prop-2-ynyl)guanidine]	8 nM
Cc1ccc(Oc2ccc(Nc3ncnc4ccc(-c5csc(CN/C(N)=N\C#N)n5)cc34)cc2C)cn1 [Example 5, N-cyano-N′-(4-{4-[3-Methyl-4-(6-methyl-pyridin-3-yloxy)-phenylamino]-quinazolin-6-yl}-thiazol-2-ylmethyl)guanidine]	31 nM
N#C/N=C(\NCC#Cc1ccc2ncnc(Nc3ccc4c(cnn4Cc4cccc(F)c4)c3)c2c1)N1CCOCC1 [Example 9, N-cyano-N′-(3-{4-[1-(3-Fluoro-benzyl)-1 H-indazol-5-ylamino]-quinazolin-6-yl}-prop-2-ynyl)-morpholine-4-carboxamidine]	12 nM
N#C/N=C(\NCc1ccc(-c2ccc3ncnc(Nc4ccc(OCc5cccc(F)c5)c(Cl)c4)c3c2)o1)N1CCOCC1 [Example 4, N-(5-{4-[3-Chloro-4-(3-fluoro-benzyloxy)-phenylamino]-quinazolin-6-yl}-furan-2-ylmethyl)-N′-cyano-morpholine-4-carboxamidine]	13 nM
CN/C(=N/C#N)NCCCOc1cc2c(Nc3ccc(OCc4cccc(F)c4)c(Cl)c3)ncnc2cc1OC [Example 8, N-(3-{4-[3-Chloro-4-(3-fluoro-benzyloxy)-phenylamino]-7-methoxy-quinazolin-6-yloxy}-propyl) -N′-cyano-N″-methylguanidine]	40 nM
